Experimental findings from article PMC5386672, “Structure-guided design of purine-based probes for selective Nek2 inhibition” (Oncotarget, 2016) are described below.

One data set has as its target CDK2 (Homo sapiens, UniProt P24941). Description: CDK2 kinase inhibition assay. It counts as biochemical. The conditions noted are these: for selectivity for CDK2 over Nek2: from IC50 values.
In data set [1] the target is T1, Nek2 (Homo sapiens, UniProt P51955).
T1 construct: purchased Invitrogen
T1 sequence (P51955 1-445): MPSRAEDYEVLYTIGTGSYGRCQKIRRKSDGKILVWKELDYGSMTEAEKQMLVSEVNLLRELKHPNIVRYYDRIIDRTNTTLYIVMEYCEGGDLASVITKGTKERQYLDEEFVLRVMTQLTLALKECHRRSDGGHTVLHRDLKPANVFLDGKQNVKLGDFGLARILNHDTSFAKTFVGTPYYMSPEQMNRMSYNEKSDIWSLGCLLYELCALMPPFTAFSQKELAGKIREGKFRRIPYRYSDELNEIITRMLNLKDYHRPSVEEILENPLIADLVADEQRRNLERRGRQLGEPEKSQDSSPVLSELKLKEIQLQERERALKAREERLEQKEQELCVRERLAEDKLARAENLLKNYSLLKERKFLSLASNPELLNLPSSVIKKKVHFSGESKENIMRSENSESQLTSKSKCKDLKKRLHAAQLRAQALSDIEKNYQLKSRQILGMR
As to the kind of experiment: Nek2 Caliper kinase inhibition assay. It counts as biochemical. The conditions noted are these: 30 μM ATP; for IC50: Caliper assay; for inhibition at 50 µM: @ 50 μM compound.

A further data set concerns the target Plk1 (Homo sapiens, UniProt P53350). Description: Separate counter-screen against Plk1. It counts as biochemical. The procedure:
To assess the broader kinase selectivity of this series of 6-(dialkylamino)vinyl-purines, the diethylamino derivative 71 was chosen for wider screening against 24 kinases at 2 μM inhibitor concentration (Figure 5 – method as in reference 12).
(In general: A counterscreen serves to expose hits that act by an unwanted route or on another target.)

The target of data set [2] is T1, Nek2. Description: Effect of pre-incubation of Nek2 with inhibitor on IC50 (time-dependence). It counts as biochemical. The text has this: www.impactjournals.com/oncotarget/ Oncotarget, Supplementary Materials 2016
Time after inhibitor addition
(1 picture or pasted object on this page, not shown here)

Data set [3] addresses T1, Nek2. Description: Nek2 inhibition reversibility assay (rapid dilution). It counts as biochemical. The conditions noted are these: 30 min pre-incubation at ten-fold IC50, rapid 100-fold dilution. Here is the method: The reversible nature of Nek2 inhibition by enamine 70 was measured using a kinase inhibition-reversibility assay. […] This solution in reaction buffer was pre-incubated with inhibitor 70 at a concentration ten-fold its IC50, calculated to afford approximately 91% inhibition of Nek2. […] Following rapid 1:100 dilution, a reaction progress curve was generated by monitoring for levels of the phosphorylated substrate as described in reference 16 using the Caliper EZ Reader II instrument at different times throughout the duration of the reaction.

[4] abbreviates: 10 min after inhibitor addition.
Setting [5] is: 15 min after inhibitor addition.
The mark [6] stands for this setting: 30 min after inhibitor addition.
Where [7] appears, read: 60 min after inhibitor addition.

“Also recorded” adds a separate entry of the source.

Chain of Plk1 (P53350 whole entry): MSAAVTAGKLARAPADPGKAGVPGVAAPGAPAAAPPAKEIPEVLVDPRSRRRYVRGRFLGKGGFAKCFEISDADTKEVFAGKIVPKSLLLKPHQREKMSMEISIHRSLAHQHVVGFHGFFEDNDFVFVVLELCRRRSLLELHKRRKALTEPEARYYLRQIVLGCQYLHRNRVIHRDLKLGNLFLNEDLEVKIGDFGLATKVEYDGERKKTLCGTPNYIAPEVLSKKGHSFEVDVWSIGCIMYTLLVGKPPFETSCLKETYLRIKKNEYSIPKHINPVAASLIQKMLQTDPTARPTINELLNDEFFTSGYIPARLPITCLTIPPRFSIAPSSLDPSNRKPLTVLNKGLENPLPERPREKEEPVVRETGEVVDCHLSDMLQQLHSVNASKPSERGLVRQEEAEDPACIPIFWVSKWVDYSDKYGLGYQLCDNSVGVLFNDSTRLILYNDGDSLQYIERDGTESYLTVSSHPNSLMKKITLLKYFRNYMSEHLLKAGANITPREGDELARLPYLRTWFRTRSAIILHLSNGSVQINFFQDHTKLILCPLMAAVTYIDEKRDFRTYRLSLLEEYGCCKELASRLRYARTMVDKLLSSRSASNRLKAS

For the compound `CN(C)/C=C/c1nc(Nc2ccccc2)nc2[nH]cnc12` [Compound 70, (E)-6-(2-(Dimethylamino)vinyl)-N-phenyl-9H-purin-2-amine], the melting point (as a rule, the temperature, or range, at which the solid turns liquid) is 129 to 131 °C. Further, on CDK2 (12.5 μM ATP), 3000 nM corresponded to half-maximal inhibition (IC50). For the same compound, the midpoint of inhibition against Nek2 [1], the IC50, lay at 770 nM. Further, at 10 µM the inhibition at Plk1 was 41%. In addition, at Nek2 [2] (2 min after inhibitor addition), the Hill slope (commonly the slope factor of the fitted curve) came out at 0.73 and half-maximal inhibition (IC50) was put at 1370 nM. Besides, at Nek2 [2] (5 min after inhibitor addition), the Hill slope came to 0.59 and the IC50 (in general, the concentration that inhibits the measured activity by half) is 840 nM. On Nek2 [2] (setting [4]), this compound registered a Hill slope of 0.79 and an IC50 of 1580 nM. At Nek2 [2] (setting [5]), the Hill slope worked out at 0.71 and 1330 nM corresponded to half-maximal inhibition (IC50). On Nek2 [2] (setting [6]), the Hill slope is reported as 0.72 and the IC50 was 1060 nM. At Nek2 [2] (setting [7]), this compound had a Hill slope of 0.85 and an IC50 of 1470 nM. The “time-dependence of Nek2 inhibition” value on Nek2 [2] (pre-incubation 2-60 min) is “not to exhibit time-dependent Nek2 inhibition kinetics”. The “reversibility of Nek2 inhibition” value on Nek2 [3] was “binds reversibly; also recorded: not an irreversible inhibitor”.
On to `O=C(Nc1ccc(Nc2nc(OCC3CCCCC3)c3nc[nH]c3n2)cc1)c1ccncc1` [Compound 30, N-[4-(6-Cyclohexylmethoxy-9H-purin-2-ylamino)phenyl]isonicotinamide], for which the melting point was 248 to 250 °C (dec.). In addition, the midpoint of inhibition on CDK2 (12.5 μM ATP), the IC50, lay at 2200 nM. In addition, the inhibition (commonly the change of the read-out against control, counted positive when it falls) at 50 µM against Nek2 [1] is 51%.
For `CN(C)CCCNC(=O)Nc1ccc(Nc2nc(OCC3CCCCC3)c3nc[nH]c3n2)cc1` [Compound 18, 1-(4-(6-(Cyclohexylmethoxy)-9H-purin-2-ylamino)phenyl)-3-(3-(dimethylamino)propyl)urea], the melting point lay within 110 to 112 °C. This compound also returned an IC50 against CDK2 (12.5 μM ATP) of 720 nM. This compound also displayed an IC50 against Nek2 [1] of 1200 nM.
`CCC(C)Oc1nc(Nc2cccc(CC(=O)NCCCN(C)C)c2)nc2[nH]cnc12` (racemic) [Compound 60, (±)-2-[3-(6-sec-Butoxy-9H-purin-2-ylamino)phenyl]-N-(3-dimethylaminopropyl)acetamide] came in with a melting point of 97 to 98 °C. On CDK2 (12.5 μM ATP), this compound had an IC50 of 410 nM. In addition, the “selectivity for CDK2 over Nek2” value at CDK2 is listed as 10 fold. Half-maximal inhibition at Nek2 [1] (IC50) was put at 4900 nM.
`O=C(Cc1cccc(Nc2nc(OCC3CCCCC3)c3nc[nH]c3n2)c1)NC1CCCC1` [Compound 35] had a melting point of 228 to 229 °C. The same compound returned an IC50 at CDK2 (12.5 μM ATP) of 1100 nM. The compound also registered an IC50 against Nek2 [1] of 4100 nM.
`NC(=O)Nc1cccc(Nc2nc(OCC3CCCCC3)c3nc[nH]c3n2)c1` [Compound 31, 1-(3-(6-(Cyclohexylmethoxy)-9H-purin-2-ylamino)phenyl) urea] showed a melting point of 193 to 194 °C. The compound also gave an IC50 against CDK2 (12.5 μM ATP) of 380 nM. For the same compound, the “selectivity for CDK2 over Nek2” value at CDK2 worked out at 10 fold. The IC50 on Nek2 [1] came to 3600 nM.
As to `O=C(Cc1cccc(Nc2nc(OCC3CCCCC3)c3nc[nH]c3n2)c1)NC1CCCCC1` [Compound 36], the melting point lay in the range of 226 to 227 °C. The compound also registered an IC50 against CDK2 (12.5 μM ATP) of 2100 nM. At Nek2 [1], this compound came in with an IC50 of 8400 nM.
The corresponding values for `Nc1cccc(Nc2nc(OCC3CCCCC3)c3[nH]cnc3n2)c1` [Compound 22, 2-(3-Aminophenyl)amino-6-cyclohexylmethoxy-purine] are 117 to 118 °C (dec.), 700 nM and 5900 nM.
Turning to `COc1ccc(CNS(=O)(=O)Cc2cccc(Nc3nc(OCC4CCCCC4)c4nc[nH]c4n3)c2)cc1` [Compound 52, 1-[3-(6-Cyclohexylmethoxy-9H-purin-2-ylamino)phenyl]-N-(4-methoxybenzyl)methanesulfonamide], the melting point is 118 to 119 °C. Further, half-maximal inhibition on CDK2 (12.5 μM ATP) (IC50) required 3000 nM. Moreover, 100 µM produced 38% inhibition on Nek2 [1] (@ 100 μM compound).
`Nc1ccc(Nc2nc(OCC3CCCCC3)c3[nH]cnc3n2)cc1` [Compound 21, 2-(4-Aminophenyl)amino-6-cyclohexylmethoxy-purine] yielded a melting point of 228 to 230 °C. This compound showed an IC50 at CDK2 (12.5 μM ATP) of 220 nM. On Nek2 [1], this compound had an IC50 of 6300 nM.
`CC(C)CNC(=O)Cc1cccc(Nc2nc(OCC3CCCCC3)c3nc[nH]c3n2)c1` [Compound 34, 2-[3-(6-Cyclohexylmethoxy-9H-purin-2-anilino)]-N-isobutylacetamide] gave a melting point of 144 to 145 °C. In addition, at CDK2 (12.5 μM ATP), inhibition was half-maximal at 940 nM (IC50). The same compound returned an inhibition at 50 µM on Nek2 [1] of 79%.
With `O=C(Cc1cccc(Nc2nc(OCC3CCCCC3)c3nc[nH]c3n2)c1)NCCCn1ccnc1` [Compound 41, 2-[3-(6-Cyclohexylmethoxy-9H-purin-2-ylamino)phenyl]-N-(3-imidazol-1-yl-propyl)acetamide], the melting point is 192 to 193 °C. This compound returned an IC50 at CDK2 (12.5 μM ATP) of 1600 nM. On Nek2 [1], this compound had an IC50 of 6130 nM.
For `CCOc1nc(Nc2cccc(CC(=O)NCCCn3ccnc3)c2)nc2[nH]cnc12` [Compound 62, 2-[3-(6-Ethoxy-9H-purin-2-ylamino)-phenyl]-N-(3-imidazol-1-ylpropyl)acetamide], the melting point fell in the range of 176 to 177 °C. In addition, the IC50 against CDK2 (12.5 μM ATP) was determined as 5200 nM. Also, 2800 nM corresponded to half-maximal inhibition on Nek2 [1] (IC50).
On to `O=C(c1cccc(Nc2nc(OCC3CCCCC3)c3nc[nH]c3n2)c1)N1CCCCC1` [Compound 32, [3-(6-Cyclohexylmethoxy-9H-purin-2-ylamino)phenyl]piperidin-1-ylmethanone], for which the melting point was in the range of 133 to 135 °C. This compound registered an IC50 against CDK2 (12.5 μM ATP) of 18000 nM. On Nek2 [1], this compound had an inhibition at 50 µM of 57%.
In the case of `CN(C)S(=O)(=O)c1cccc(Nc2nc(OCC3CCCCC3)c3nc[nH]c3n2)c1` [Compound 14, 3-(6-Cyclohexylmethoxy-9H-purin-2-ylamino)-N,N-dimethylbenzenesulfonamide], the melting point was in the range of 143 to 145 °C. This compound returned an IC50 against CDK2 (12.5 μM ATP) of 3500 nM. The same compound gave an inhibition at 50 µM against Nek2 [1] of 40%.
On to `CN(C)CCCNS(=O)(=O)Cc1cccc(Nc2nc(OCC3CCCCC3)c3nc[nH]c3n2)c1` [Compound 51, 1-[3-(6-Cyclohexylmethoxy-9H-purin-2-ylamino)phenyl]-N-(3-dimethylaminopropyl)methanesulfonamide], for which the melting point lay within 167 to 168 °C. On CDK2 (12.5 μM ATP), inhibition was half-maximal at 530 nM (IC50). The compound further yielded an IC50 on Nek2 [1] of 1420 nM.
For the compound `CNC(=O)Cc1cccc(Nc2nc(OCC3CCCCC3)c3nc[nH]c3n2)c1` [Compound 15], the melting point lay in the range of 176 to 177 °C. Further, the IC50 at CDK2 (12.5 μM ATP) stood at 320 nM. Also, on Nek2 [1], the IC50 is 1300 nM.
Regarding `O=C(Cc1cccc(Nc2ncc3nc[nH]c3n2)c1)NCCCn1ccnc1` [Compound 67, N-(3-Imidazol-1-yl-propyl)-2-[3-(9H-purin-2-ylamino)phenyl]acetamide], the melting point lay in the range of 121 to 122 °C. This compound gave an IC50 against CDK2 (12.5 μM ATP) of over 100000 nM. The compound also displayed an IC50 at Nek2 [1] of 5900 nM.
For `O=C(NCCN1CCCCC1)Nc1ccc(Nc2ncc3nc[nH]c3n2)cc1` [Compound 65, 1-(4-((9H-purin-2-yl)amino)phenyl)-3-(2-(piperidin-1-yl)ethyl)urea], the melting point was 96 to 98 °C. The compound further yielded an inhibition at 100 µM against CDK2 (@ 100 μM compound, 12.5 μM ATP) of 30%. At Nek2 [1], this compound returned an IC50 of 4500 nM.
